Data set [1] can be described thus: in vitro. The method, then:
All working solutions were freshly prepared similarly as described for the test article working solution.
Assay for determining Blood to plasma ratio: Pooled male CD-1 mouse, Sprague-Dawley rat, beagle dog and cynomolgus monkey plasma, and mixed gender human blood with EDTAK2 as anticoagulant were stored on wet ice and used the same day. […] After mixing thoroughly, 0.6 mL of spiked blood was transferred to a 96-well plate in triplicate. Concurrently, control compounds were spiked into each species blood in the same fashion to generate the final concentration of 2.0 μM.
The rest of the spiked blood samples were immediately placed into a humidified incubator with 5% CO2 at 37° C., with constant swiveling at 500 rpm for 60 min on a platform shaker. […] The T60-plasma samples for analysis were obtained by taking 50 μL of plasma from each well, mixed with 50 μL of blank blood and 100 μL of water, followed by addition of 600 μL stop solution. […] All the T0, T60-blood and T60-plasma samples were shaken vigorously at 800 rpm for 30 min followed by the centrifugation at 3220×g at 20° C. for 20 min. 100 μL aliquot of supernatant was diluted with 100 μL of water and mixed well for LC-MS/MS analysis.
Measurement of Hematocrit: The hematocrit (the volume percentage of erythrocytes in blood) was determined in triplicate for each species by centrifuging the blood samples with a HAEMATOKRIT 200 at 9440×g for 5 min.
Data analysis: The ratio of compound concentrations in whole blood over plasma (KB/P) and % Recovery in blood were calculated by the following equations: KB/P=[…]([T60-blood]/[T60-plasma]), where [T60-blood] is the peak area ratios of analyte/internal standard in whole blood sample at 60 min; [T60-plasma] is the peak area ratios of analyte/internal standard in plasma sample at 60 min; [T0-blood] is the peak area ratios of analyte/internal standard in whole blood sample at time zero.

The next data set concerns the target CYP2C9 (Homo sapiens, UniProt P11712). Briefly: in vitro. The conditions noted are these: both, microsomes, pH 7.4, % of Control Enzyme Activity.
A short description of data set [2]: in vitro. The note with it: male, plasma. The method, then: Studies were carried out in mixed-gender human plasma, male Sprague-Dawley rat plasma, male CD-1 mouse plasma, male Beagle dog plasma, and male Cynomolgus monkey plasma collected on sodium heparin. A Rapid Equilibrium Dialysis (RED) device was used for all experiments. […] Blank PBS (500 μL) was added to each corresponding receiver chamber. The device was then placed into an enclosed heated rocker that was pre-warmed to 37° C., and allowed to incubate for four hours. After 4 hours of incubation, both sides were sampled.
Aliquots (50 μL for donor, 200 μL for receiver) were removed from the chambers and placed into a 96-well plate. Plasma (50 μL) was added to the wells containing the receiver samples, and 200 μL of PBS was added to the wells containing the donor samples. Two volumes of acetonitrile were added to each well, and the plate was mixed and then centrifuged at 3,000 rpm for 10 minutes. Aliquots of the supernatant were removed, and analyzed by LCMS/MS. Calibration standards were prepared in a matched matrix and prepared similarly to the assay samples. Binding and recovery values were calculated as follows: % Bound=[(Concentration in Donor−Concentration in Receiver)/(Concentration in Donor)]×100; % Recovery=[(Concentration in Donor+Concentration in Receiver)/(Nominal Dosing Concentration)]×100.

Data set [3] concerns the target T1, CYP2B6 (Homo sapiens, UniProt P20813).
T1 sequence (P20813 1-491): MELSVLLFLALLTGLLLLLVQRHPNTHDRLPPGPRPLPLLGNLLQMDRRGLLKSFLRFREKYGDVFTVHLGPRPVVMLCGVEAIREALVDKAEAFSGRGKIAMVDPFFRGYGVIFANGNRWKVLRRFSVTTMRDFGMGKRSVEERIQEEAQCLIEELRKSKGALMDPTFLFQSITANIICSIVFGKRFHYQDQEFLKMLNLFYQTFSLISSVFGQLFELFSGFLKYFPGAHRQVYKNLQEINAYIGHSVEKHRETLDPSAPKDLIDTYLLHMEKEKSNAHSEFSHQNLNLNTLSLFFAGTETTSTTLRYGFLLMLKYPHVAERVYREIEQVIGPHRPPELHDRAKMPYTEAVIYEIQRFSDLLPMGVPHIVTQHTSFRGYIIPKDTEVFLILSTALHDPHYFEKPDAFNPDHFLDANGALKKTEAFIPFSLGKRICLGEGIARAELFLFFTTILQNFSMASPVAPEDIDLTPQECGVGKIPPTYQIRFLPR
Briefly: time-dependent CYP inhibition in human liver microsomes (IC50 shift). The conditions noted are these: both, pooled human liver microsomes, pH 7.4, % of Control Enzyme Activity; for activity at 20 min, 0.37 µM: 0.370 μM. (Liver microsomes are vesicles of endoplasmic reticulum, rich in cytochrome P450 enzymes.)

The target of data set [4] is T1, CYP2B6. Briefly: CYP inhibition in human liver microsomes. The format is in vitro ADME. On the set-up: from tissue; host or cells: pooled human liver microsomes, 200 donors. The conditions noted are these: both sexes, pooled human liver microsomes, pH 7.4, HLM, read-out: % of Control Enzyme Activity. The method, then:
The HLMs were stored at −80° C. until use.
Negative (vehicle) controls were conducted without a test article.

For the next data set, the target named is CYP3A (Homo sapiens, UniProt P08684). As to the kind of experiment: in vitro. The conditions noted are these: both, microsomes, pH 7.4, % of Control Enzyme Activity, HLM; for activity at 10 min, 0.037 µM: 0.0370 μM.
The target in a further data set is P-GP (Homo sapiens, UniProt P08183). As to the kind of experiment: in vitro. The conditions noted are these: pH 7.4.
The subject of data set [5] is CYP2B6. Briefly: CYP induction in human hepatocytes (mRNA and enzyme activity). The conditions noted are these: for % Induction Relative to Positive Control / Fold-Change: CYP2B6 enzyme activity, control article.

This note sets out measurements from US20230049952A1, “METHODS AND COMPOUNDS FOR RESTORING MUTANT P53 FUNCTION” (PMV Pharmaceuticals, Inc., priority 2020, published 2023).

Where “and” joins values, the source holds several entries; their conditions need not be identical. Equal values may be shown once.

CYP2C9, sequence (P11712 whole entry): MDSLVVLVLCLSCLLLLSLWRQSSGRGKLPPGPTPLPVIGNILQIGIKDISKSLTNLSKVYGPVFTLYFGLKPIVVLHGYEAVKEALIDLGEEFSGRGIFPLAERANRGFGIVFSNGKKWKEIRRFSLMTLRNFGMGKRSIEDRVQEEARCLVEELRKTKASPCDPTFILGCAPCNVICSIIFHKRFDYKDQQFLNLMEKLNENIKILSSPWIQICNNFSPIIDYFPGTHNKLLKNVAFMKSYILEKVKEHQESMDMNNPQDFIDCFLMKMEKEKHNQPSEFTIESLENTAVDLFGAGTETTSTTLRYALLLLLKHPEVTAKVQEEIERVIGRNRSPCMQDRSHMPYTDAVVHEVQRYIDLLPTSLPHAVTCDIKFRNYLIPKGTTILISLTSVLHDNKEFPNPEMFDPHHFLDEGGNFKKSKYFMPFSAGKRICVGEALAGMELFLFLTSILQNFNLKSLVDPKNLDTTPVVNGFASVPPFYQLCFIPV
CYP3A, sequence (P08684 2-503): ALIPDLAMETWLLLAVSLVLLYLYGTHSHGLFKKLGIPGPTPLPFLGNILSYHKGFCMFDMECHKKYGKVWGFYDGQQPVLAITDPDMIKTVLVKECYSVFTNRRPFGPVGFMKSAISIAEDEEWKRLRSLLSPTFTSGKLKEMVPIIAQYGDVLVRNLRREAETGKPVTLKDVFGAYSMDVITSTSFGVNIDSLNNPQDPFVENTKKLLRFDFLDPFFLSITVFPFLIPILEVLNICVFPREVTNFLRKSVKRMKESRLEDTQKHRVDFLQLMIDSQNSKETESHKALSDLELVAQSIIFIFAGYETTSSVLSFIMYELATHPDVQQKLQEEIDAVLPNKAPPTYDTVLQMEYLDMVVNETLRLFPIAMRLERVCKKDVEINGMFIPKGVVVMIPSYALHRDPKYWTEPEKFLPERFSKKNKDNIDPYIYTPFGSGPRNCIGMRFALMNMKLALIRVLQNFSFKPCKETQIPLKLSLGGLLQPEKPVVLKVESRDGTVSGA
P-GP, sequence (P08183 whole entry): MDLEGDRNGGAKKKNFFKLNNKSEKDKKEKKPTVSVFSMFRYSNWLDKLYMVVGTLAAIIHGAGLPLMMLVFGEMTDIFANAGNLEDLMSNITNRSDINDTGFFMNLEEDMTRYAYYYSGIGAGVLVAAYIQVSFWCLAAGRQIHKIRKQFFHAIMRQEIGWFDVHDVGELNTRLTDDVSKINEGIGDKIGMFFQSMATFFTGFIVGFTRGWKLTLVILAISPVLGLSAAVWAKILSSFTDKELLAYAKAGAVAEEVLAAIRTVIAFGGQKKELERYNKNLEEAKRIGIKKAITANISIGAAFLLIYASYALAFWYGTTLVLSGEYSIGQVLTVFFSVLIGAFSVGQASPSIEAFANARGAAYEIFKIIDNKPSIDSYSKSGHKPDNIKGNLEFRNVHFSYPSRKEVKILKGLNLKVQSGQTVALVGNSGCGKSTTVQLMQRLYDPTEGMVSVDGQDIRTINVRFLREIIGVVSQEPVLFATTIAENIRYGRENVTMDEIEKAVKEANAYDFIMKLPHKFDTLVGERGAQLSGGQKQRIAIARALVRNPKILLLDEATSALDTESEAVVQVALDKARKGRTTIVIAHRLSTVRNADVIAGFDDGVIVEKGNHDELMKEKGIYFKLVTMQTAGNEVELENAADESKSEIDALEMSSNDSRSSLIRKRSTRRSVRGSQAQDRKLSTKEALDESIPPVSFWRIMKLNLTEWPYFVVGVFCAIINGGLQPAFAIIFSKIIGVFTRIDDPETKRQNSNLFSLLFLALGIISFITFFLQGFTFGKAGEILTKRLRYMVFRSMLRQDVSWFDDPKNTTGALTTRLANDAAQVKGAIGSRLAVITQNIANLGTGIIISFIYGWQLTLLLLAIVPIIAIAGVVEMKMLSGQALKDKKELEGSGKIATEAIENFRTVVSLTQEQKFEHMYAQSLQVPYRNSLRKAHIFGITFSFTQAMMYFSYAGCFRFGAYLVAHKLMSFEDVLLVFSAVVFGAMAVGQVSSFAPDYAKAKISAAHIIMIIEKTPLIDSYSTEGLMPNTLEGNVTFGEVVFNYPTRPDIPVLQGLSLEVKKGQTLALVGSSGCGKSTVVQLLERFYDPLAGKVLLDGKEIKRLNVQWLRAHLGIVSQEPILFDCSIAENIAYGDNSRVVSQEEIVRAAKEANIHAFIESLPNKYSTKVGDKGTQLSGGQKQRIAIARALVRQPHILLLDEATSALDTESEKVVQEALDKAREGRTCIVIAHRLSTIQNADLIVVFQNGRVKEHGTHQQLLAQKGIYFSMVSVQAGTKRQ

`CCN(CC)CCCC(C)Nc1ccnc2cc(Cl)ccc12` (stereo not shown) [Chloroquine, chloroquine]: the recovery at 60 min, 2 μM worked out at 90.8 ± 6.07% in “in vitro [1]” (both, human); 99.4 ± 1.7% in “in vitro [1]” (male, CD-1, mouse); 100 ± 1.86% in “in vitro [1]” (male, Sprague-Dawley, rat); 113 ± 3.57% in the data set “in vitro [1]” (male, beagle, dog); 96.9 ± 1.83% in the data set “in vitro [1]” (male, cynomolgus monkey).

For the molecule `O=C(O)COc1ccc(C(=O)c2cccs2)c(Cl)c1Cl` [Tienilic acid], on CYP2C9, the activity at 20 min, 0.123 µM is 96.5%; the activity at 20 min, 0.37 µM was found to be 80.1%; the activity at 20 min, 3.33 µM worked out at 32.8%; the activity at 20 min, 30 µM is 8.14%. On CYP2C9, the activity at 20 min, […] was 101% and 57.4%; the activity at 30 min, 0.123 µM was found to be 74.4%; the activity at 30 min, 0.37 µM came to 36.8%; the activity at 30 min, 3.33 µM was 9.24%. Moreover, the activity at 30 min, 30 µM on CYP2C9 amounted to 3.84%.

For the molecule `CC(=O)CC(c1ccccc1)c1c(O)c2ccccc2oc1=O` (stereo not shown) [Warfarin, warfarin], the fraction unbound at 4 h, 10 μM in the data set “in vitro [2]” (Beagle, dog, % Bound Mean) is 0.026; in the data set “in vitro [2]” (Beagle, dog, % Bound R1-R3), 0.027; in “in vitro [2]” (CD-1, mouse, % Bound Mean) it was 0.217; in the data set “in vitro [2]” (CD-1, mouse, % Bound R1-R3), 0.226; in “in vitro [2]” (monkey, % Bound Mean), 0.006; in “in vitro [2]” (monkey, % Bound R1-R3), 0.007.

With `S=P(N1CC1)(N1CC1)N1CC1` [Thio-TEPA], the results for the activity at 20 min, 0.37 µM at CYP2B6 [3] (pre-incubation 30 min +NADPH), on CYP2B6 [3] (pre-incubation 30 min −NADPH) and on CYP2B6 [4] (0.370 μM) were 86.4%, 92.5% and 97.3%, respectively. Further, the activity at 20 min, 3.33 µM at CYP2B6 [3] (pre-incubation 30 min +NADPH) was found to be 37.6%; at CYP2B6 [3] (pre-incubation 30 min −NADPH), 78.5%; at CYP2B6 [4] (3.33 μM), 69.7%. Moreover, the activity at 20 min, 10 µM on CYP2B6 [3] (pre-incubation 30 min +NADPH) came to 18%; at CYP2B6 [3] (pre-incubation 30 min −NADPH), 58.6%; on CYP2B6 [4] (10.0 μM), 44.3%. The values for the activity at 20 min, 30 µM at CYP2B6 [3] (pre-incubation 30 min +NADPH), at CYP2B6 [3] (pre-incubation 30 min −NADPH) and at CYP2B6 [4] (30.0 μM) were 11.7%, 41.4% and 25.6%, respectively. Further, on CYP2B6 [4] (0.123 μM), the activity at 20 min, 0.123 µM worked out at 97%.

On to `CC(=O)N1CCN(c2ccc(OCC3COC(Cn4ccnc4)(c4ccc(Cl)cc4Cl)O3)cc2)CC1` (stereo not shown) [Ketoconazole, ketoconazole], for which, at CYP3A (Midazolam probe), the activity at 10 min, 0.0123 µM was determined as 74.5%; the activity at 10 min, 0.037 µM was 49.9%; the activity at 10 min, 3 µM worked out at 5.38%. At CYP3A (Testosterone probe), the activity at 10 min, 0.0123 µM amounted to 58.4%; the activity at 10 min, 0.037 µM is 32.9%; the activity at 10 min, 3 µM worked out at 1.56%. In addition, the activity at 10 min, 0.333 µM at CYP3A (Testosterone probe, 0.333 μM) turned out to be 6.75%. Moreover, on CYP3A (Testosterone probe, 1.00 μM), the activity at 10 min, 1 µM came to 3.54%.

Regarding `C/C=C/C[C@@H](C)C(=O)[C@H]1C(=O)N[C@@H](C(C)C)C(=O)N(C)CC(=O)N(C)[C@@H](CC(C)C)C(=O)N[C@@H](C(C)C)C(=O)N(C)[C@@H](CC(C)C)C(=O)N[C@@H](C)C(=O)N[C@H](C)C(=O)N(C)[C@@H](CC(C)C)C(=O)N(C)[C@@H](CC(C)C)C(=O)N(C)[C@@H](C(C)C)C(=O)N1C` [Valspodar, valspodar], at P-GP, the inhibition at 120 min, 1 µM came out at 100%.

Regarding `CCC1(c2ccccc2)C(=O)NC(=O)NC1=O` [PB, phenobarbital], the “% Induction Relative to Positive Control” value with CYP2B6 [5] (Donor 1), in the data set on CYP2B6 [5] (Donor 2) and in the data set with CYP2B6 [5] (Donor 3) was 100% in each case. Moreover, the Fold-Change was 6.84 with CYP2B6 [5] (Donor 1), 8.56 in the data set on CYP2B6 [5] (Donor 2) and 3.36 in the data set with CYP2B6 [5] (Donor 3). In addition, the “CYP2B6 mRNA % Induction Relative to Positive Control” value with CYP2B6 [5] (Donor 1, 1000 μM) amounted to 100%; in the data set on CYP2B6 [5] (Donor 2, 1000 μM), 100%; in the data set on CYP2B6 [5] (Donor 3, 1000 μM), 100%. Also, the “CYP2B6 mRNA Fold Change (n = 3) Mean” value in the data set on CYP2B6 [5] (Donor 1, 1000 μM) was 24.4; with CYP2B6 [5] (Donor 2, 1000 μM) it was 793; with CYP2B6 [5] (Donor 3, 1000 μM), 6.85. For the same molecule, the “CYP2B6 mRNA fold increase (positive control)” value in the data set on CYP2B6 [5] (donor 2, positive control) was 793 fold.

Usually fraction unbound stands for the share of the substance not bound to proteins or other matrix. One may read the inhibition as the percentage by which the read-out fell short of the control.
